Drawing on patent US11512097B2, “Heterocyclic compounds as Delta-5 desaturase inhibitors and methods of use” (Amgen Inc., priority 2019, dated 2022), this text covers IC50 for 13 compounds.

The test deals with T1, Delta-5-Desaturase (D5D), membrane preparations of D5D-overexpressing HEK293 6E cells (Homo sapiens, UniProt O60427).
T1 construct: expressed in transfected cells; host or cells: HEK293 6E cells (membrane preparation)
T1 sequence (O60427 whole entry, species assumed): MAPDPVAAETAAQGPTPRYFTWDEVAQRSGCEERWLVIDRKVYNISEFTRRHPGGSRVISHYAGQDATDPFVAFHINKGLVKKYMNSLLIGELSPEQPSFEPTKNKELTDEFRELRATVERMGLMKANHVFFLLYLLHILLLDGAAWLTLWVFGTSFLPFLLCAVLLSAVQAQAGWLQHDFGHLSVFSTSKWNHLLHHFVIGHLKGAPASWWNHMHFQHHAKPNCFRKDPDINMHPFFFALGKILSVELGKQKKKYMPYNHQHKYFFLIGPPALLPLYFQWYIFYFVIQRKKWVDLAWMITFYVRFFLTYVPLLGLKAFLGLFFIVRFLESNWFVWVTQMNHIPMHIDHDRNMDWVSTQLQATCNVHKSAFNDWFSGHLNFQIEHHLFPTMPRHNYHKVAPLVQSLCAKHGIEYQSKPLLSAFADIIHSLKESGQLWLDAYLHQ
Description: In vitro measurement of Delta-5-Desaturase inhibitory activity using DGLA-CoA and Arachidonyl-CoA mass spectrometric assays. As to conditions: D5D membrane 10 μg/mL, one-hour incubation, average of at least two independent runs. Type of test: biochemical. Here is the method:
In Vitro Measurement of Delta-5-Desaturase Inhibitory Activity Using DGLA-CoA and Arachidonyl-CoA Mass Spectrometric Assays Membrane preparations of D5D-overexpressing HEK293 6E cells were prepared in which the total protein concentration was 5.6 mg/mL. Stock D5D membrane preparations were diluted in D5D assay buffer (25 mM 2-amino-2-(hydroxymethyl)-1,3-propanediol, pH 7.5 containing 10 mM MgCl2, 1 mM octyl glucoside (SigmaAldrich O-8001), 1 mM tris(2-carboxyethyl)phosphine hydrochloride (SigmaAldrich 646547)) to a final D5D membrane concentration of 10 μg/mL in an assay plate containing serially diluted test compounds. To 15 μL of this D5D preparation was added 15 μL of a substrate solution (0.25 mM NADH (nicotinamide adenine dinucleotide, Roche Diag. 10107735001), 0.25 mM adenosine triphosphate (SigmaAldrich A-3377), 0.05 mM coenzyme A hydrate (SigmaAldrich C-4282), and 0.01 mM DGLA (dihomo-g-linolenic acid, Sigma E-4504) in the same D5D assay buffer. After one-hour incubation at ambient temperature acetonitrile (30 μL) was added to quench the reaction and plates were centrifuged for 10 min @ 3,000 rpm. Mass spectrometric analysis involved a Rapidfire 360 SPE system coupled to an ABSciex API4000 Triple Quadrupole mass spectrometer using a C18 SPE cartridge (G9203-80105) with ionization in negative mode (solvent A=100% water; solvent B=100% acetonitrile, each solvent containing 5 mM ammonium acetate). DGLA-CoA and Arachidonyl-CoA were detected by multiple reaction monitoring (MRM) of the doubly charged parent ions at m/z 526.6 and 525.6, respectively. […] Sx is value from unknown sample, So is value from DMSO alone and Sc is value from no enzyme well. For CRC analysis, the % of inhibitions were analysed with 4 Parameter Logistic Model or Sigmoidal Dose-Response Model using XLfit (IDBS, Guilford, UK). The potency of the test item was expressed as IC50 nM, corresponding to the test item concentration able to inhibit the 50% of the enzyme maximal response. IC50 values were averaged values determined by at least two independent runs. The results presented in Table 15 have been generated with the in vitro assay described above. This assay may be used to test any of the compounds described herein to assess and characterize a compound's ability to inhibit D5D.
The compound `Cc1cn2c(=O)c(-c3ccc(OCC(F)(F)F)cc3)c(C(F)(F)F)nc2n1CC1CC1` [Example 68, 1-(cyclopropylmethyl)-2-methyl-6-[4-(2,2,2-trifluoroethoxy)phenyl]-7-(trifluoromethyl)-1H,5H-imidazo[1,2-a]pyrimidin-5-one] displayed a half-inhibitory concentration (IC50) of 356 nM.
Then `Cc1nn2c(=O)c(-c3cnn(CCC(F)(F)F)c3)c(C(F)(F)F)nc2n1C` [Example 14, 2,3-dimethyl-5-(trifluoromethyl)-6-[1-(3,3,3-trifluoropropyl)-1H-pyrazol-4-yl]-3H,7H-[1,2,4]triazolo[1,5-a]pyrimidin-7-one], with 1430 nM; and `O=c1c(-c2cnn(CCC(F)(F)F)c2)c(C(F)(F)F)nc2sccn12` [Example 8, 7-(trifluoromethyl)-6-[1-(3,3,3-trifluoropropyl)-1H-pyrazol-4-yl]-5H-[1,3]thiazolo[3,2-a]pyrimidin-5-one], with 4.6 nM; and `CCn1c(C)cn2c(=O)c(-c3cnn(CC(F)(F)C(F)(F)F)c3)c(C(F)(F)F)nc12` [Example 56, 1-ethyl-2-methyl-6-[1-(2,2,3,3,3-pentafluoropropyl)-1H-pyrazol-4-yl]-7-(trifluoromethyl)-1H,5H-imidazo[1,2-a]pyrimidin-5-one], with 34.3 nM.
For the compound `COc1nn2c(=O)c(-c3cnn(CC(F)(F)C(F)(F)F)c3)c(C(F)(F)F)nc2s1` [Example 43, 2-methoxy-6-[1-(2,2,3,3,3-pentafluoropropyl)-1H-pyrazol-4-yl]-7-(trifluoromethyl)-5H-[1,3,4]thiadiazolo[3,2-a]pyrimidin-5-one], the IC50 worked out at 34 nM.
Then `Cn1ccc2nc(C(F)(F)F)c(-c3cnn(CC(F)(F)C(F)(F)F)c3)c(=O)n21` [Example 17, 1-methyl-6-[1-(2,2,3,3,3-pentafluoropropyl)-1H-pyrazol-4-yl]-5-(trifluoromethyl)-1H,7H-pyrazolo[1,5-a]pyrimidin-7-one], with 363 nM.
Compound `Cc1nn2c(=O)c(-c3cnn(CC(F)(F)C(F)(F)F)c3)c(C(F)(F)F)nc2n1C` [Example 13, 2,3-dimethyl-6-[1-(2,2,3,3,3-pentafluoropropyl)-1H-pyrazol-4-yl]-5-(trifluoromethyl)-3H,7H-[1,2,4]triazolo[1,5-a]pyrimidin-7-one] showed an IC50 of 249 nM.
Compound `Cc1cn2c(=O)c(-c3cnn(CC(F)(F)C(F)(F)F)c3)c(C(F)(F)F)nc2n1CCO` [Example 79, 1-(2-hydroxyethyl)-2-methyl-6-[1-(2,2,3,3,3-pentafluoropropyl)-1H-pyrazol-4-yl]-7-(trifluoromethyl)-1H,5H-imidazo[1,2-a]pyrimidin-5-one] showed an IC50 of 11.7 nM.
`Cn1cc(Cl)n2c(=O)c(-c3cnn(CC(F)(F)C(F)(F)F)c3)c(C(F)(F)F)nc12` [Example 44, 3-chloro-1-methyl-6-[1-(2,2,3,3,3-pentafluoropropyl)-1H-pyrazol-4-yl]-7-(trifluoromethyl)-1H,5H-imidazo[1,2-a]pyrimidin-5-one] displayed an IC50 of 3210 nM.
Consider `Cc1cn2c(=O)c(-c3cnn(C[C@H]4CC4(F)F)c3)c(C(F)(F)F)nc2n1C` (single isomer, unassigned) [Example 109], for which the IC50 amounted to 28.6 nM.
As for `Cc1cn2c(=O)c(-c3cnn(CCC(F)(F)F)c3)c(C(F)(F)F)nc2n1CC1CC1(F)F` (stereo not shown) [Example 81, 1-[(2,2-difluorocyclopropyl)methyl]-2-methyl-7-(trifluoromethyl)-6-[1-(3,3,3-trifluoropropyl)-1H-pyrazol-4-yl]-1H,5H-imidazo[1,2-a]pyrimidin-5-one], it took 105 nM to reach half-maximal inhibition (IC50).
Take `CCOc1nc2sc(C)nn2c(=O)c1-c1cnn(CC(F)(F)C(F)(F)F)c1` [Example 41, 7-ethoxy-2-methyl-6-[1-(2,2,3,3,3-pentafluoropropyl)-1H-pyrazol-4-yl]-5H-[1,3,4]thiadiazolo[3,2-a]pyrimidin-5-one]: the concentration for half-maximal inhibition (IC50) was found to be 877 nM.
Regarding `Cc1cn2c(=O)c(-c3cnn(C[C@@H]4CC4(F)F)c3)c(C(F)(F)F)nc2[nH]1` (single isomer, unassigned) [Example 108], the half-inhibitory concentration (IC50) is 12 nM.

A word on the IC50: it is the concentration that gives 50% inhibition. Lower therefore signals inhibition by little substance.
